# From patent US11472806B2, “Substituted heterocyclic compounds as allosteric modulators of group II metabotropic glutamate receptors” (Domain Therapeutics, priority 2017, dated 2022)
# Counter-ions that a name gives are not always drawn.
# Molecular target: T1, human mGluR3 (hmGluR3) (Homo sapiens, UniProt Q14832)
# T1 construct: expressed in transfected cells; host or cells: HEK-293 cells, transient co-transfection by electroporation
# Assay: Human mGluR3 positive allosteric modulator evaluation using Ca++ functional assay
# Type: cell-based
# Conditions: hmGluR3 transiently over-expressed in HEK-293 cells; cells stimulated by an EC50 glutamate concentration; intracellular Ca2+ (Fluo4AM, FLIPR Tetra)
# Procedure: Example 89: Human mGluR3 Positive Allosteric Modulator Evaluation Using Ca++ Functional Assay
# Compounds of the present invention were tested successively for their agonist and positive allosteric modulator activities on human mGluR3 (hmGluR3) transiently over-expressed in HEK-293 cells. Compounds exert agonist activity if they are able to activate hmGluR3 by themselves, i.e., in absence of the endogenous agonist glutamate; and they exert positive allosteric modulator activity if they increase the action of the endogenous agonist glutamate.
# Cell Culture and Transfection:
# HEK-293 cells were maintained in Modified Eagle's Medium supplemented with 10% Foetal Calf Serum, 1% Penicillin/Streptomycin and 1% non-essential amino acids at 37° C./5% CO2. Cells were co-transfected by electroporation with four DNA plasmids encoding hmGluR3, a chimeric G protein allowing redirection of the activation signal toward intracellular calcium pathway, and two glutamate transporters so as to decrease extracellular glutamate levels and avoid receptor desensitization (Brabet I et al., Neuropharmacology 37(8), 1043-51, 1998). After transfection, cells were seeded in 75 cm^2 culture flasks, and cultured for 24 h.
# Calcium Assa EC50 determination:
# Receptor activity was detected by changes in intracellular calcium measured using the fluorescent Ca^2+ sensitive dye, Fluo4AM (Molecular Probes).
# The day of the assay, medium was aspirated and replaced during 3 hrs by freshly prepared buffer B (HBSS 1×, Hepes 20 mM, MgSO4-7H2O 1 mM, Na2CO3 3.3 mM, CaCl2-2H2O 1.3 mM, 0.5% BSA, Probenecid 2.5 mM). Then, cells were loaded at 37° C./5% CO2 for 1.5 hrs with buffer B containing 1 μM Fluo4AM, 0.1 mg/mL Pluronic Acid, 7 μg/mL Glutamate Pyruvate Transaminase and 2 mM sodium pyruvate. Afterwards cells were washed with buffer B. Cells were then detached from the 75 cm^2 culture flasks with Accutase® (5 min incubation at 37° C.), centrifuged (5 min at 840 rpm), resuspended in buffer B and finally seeded at a density of 30,000 cells/well in black-walled clear-bottom 384-well plates. Addition of compounds on cells and intracellular Ca^2+ measurements (excitation 485 nm, emission 525 nm) were performed by the fluorescence microplate reader FLIPR Tetra (Molecular Devices).
# Agonist and positive allosteric modulator activities of compounds were consecutively evaluated on the same cells plate. Agonist activity was first tested during 10 min with the addition of compound alone on the cells. Then, the cells were stimulated by an EC50 glutamate concentration and fluorescence was recorded for additional 3 min. EC50 glutamate concentration is the concentration giving 50% of the maximal glutamate response. Agonist and/or positive allosteric modulator activity(ies) were evaluated in comparison to basal signal or signal evoked by EC50 glutamate concentration alone, respectively.
# For potency determination, a dose-response test was performed using 20 concentrations of each compound of the invention. Dose-response curves were fitted using the sigmoïdal dose-response (variable slope) analysis in XLfit Scientific Curve Fitting for Excel (IDBS). EC50 of agonist/EC50 of positive allosteric modulator activity(ies) were calculated. Dose-response experiments were all performed in duplicate, two times independently.
# T1 sequence (Q14832 23-879): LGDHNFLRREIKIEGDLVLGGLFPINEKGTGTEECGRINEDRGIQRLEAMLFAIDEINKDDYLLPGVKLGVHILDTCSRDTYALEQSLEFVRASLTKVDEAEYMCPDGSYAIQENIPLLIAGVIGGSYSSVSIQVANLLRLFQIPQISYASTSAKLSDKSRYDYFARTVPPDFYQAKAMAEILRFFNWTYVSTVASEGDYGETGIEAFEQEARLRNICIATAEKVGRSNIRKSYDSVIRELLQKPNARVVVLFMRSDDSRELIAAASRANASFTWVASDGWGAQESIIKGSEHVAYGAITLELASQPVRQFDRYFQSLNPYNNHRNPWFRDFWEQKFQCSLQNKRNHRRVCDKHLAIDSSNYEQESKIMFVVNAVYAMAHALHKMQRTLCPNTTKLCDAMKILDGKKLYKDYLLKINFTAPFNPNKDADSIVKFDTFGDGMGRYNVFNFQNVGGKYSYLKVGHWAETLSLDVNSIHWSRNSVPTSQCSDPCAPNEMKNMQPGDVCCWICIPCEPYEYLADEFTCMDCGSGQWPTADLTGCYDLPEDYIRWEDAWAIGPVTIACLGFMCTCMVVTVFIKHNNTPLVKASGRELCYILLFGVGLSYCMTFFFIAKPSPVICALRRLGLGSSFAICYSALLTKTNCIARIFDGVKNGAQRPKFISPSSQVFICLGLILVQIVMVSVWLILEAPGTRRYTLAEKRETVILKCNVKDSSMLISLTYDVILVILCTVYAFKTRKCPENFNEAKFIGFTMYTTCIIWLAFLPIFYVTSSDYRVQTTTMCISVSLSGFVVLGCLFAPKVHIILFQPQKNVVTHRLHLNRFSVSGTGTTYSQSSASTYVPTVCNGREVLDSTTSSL
row,Compound,EC50
1,"CN1Cc2ccc(-c3ccc(F)nc3)cc2-c2cc(F)cnc2C1=O [Example 47, 2-Fluoro-10-(6-fluoro-pyridin-3-yl)-6-methyl-6,7-dihydro-4,6-diaza-dibenzo[a, c]cyclohepten-5-one]",100 to 1000 nM
2,"COc1ccc2c(n1)C(=O)N(C)Cc1ccc(-c3cccnc3C)cc1-2 [Example 36, 3-Methoxy-6-methyl-10-(2-methyl-pyridin-3-yl)-6,7-dihydro-4,6-diaza-dibenzo[a, c]cyclohepten-5-one]",100 to 1000 nM
3,"Cc1ccc2c(n1)C(=O)N(C)Cc1ccc(-c3ccc(F)nc3)cc1-2 [Example 39, 10-(6-Fluoro-pyridin-3-yl)-3,6-dimethyl-6,7-dihydro-4,6-diaza-dibenzo[a, c]cyclohepten-5-one]",100 to 1000 nM
4,"CN1Cc2ccc(-c3ccc(F)cn3)cc2-c2cccnc2C1=O [Example 28, 10-(5-Fluoro-pyridin-2-yl)-6-methyl-6,7-dihydro-4,6-diaza-dibenzo[a, c]cyclohepten-5-one]",100 to 1000 nM
5,"COCn1cc2c(n1)C(=O)N(C)Cc1ccc(-c3cccnc3C)cc1-2 [Example 65, 2-Methoxymethyl-5-methyl-9-(2-methyl-pyridin-3-yl)-5,6-dihydro-2H-2,3,5-triaza-benzo[e]azulen-4-one]",100 to 1000 nM
6,"CN1Cc2ccc(-c3ccc(F)nc3)cc2-c2cccnc2C1=O [Example 27, 10-(6-Fluoro-pyridin-3-yl)-6-methyl-6,7-dihydro-4,6-diaza-dibenzo[a, c]cyclohepten-5-one]",100 to 1000 nM
7,"CN1Cc2ccc(-c3ccc(F)cn3)cc2-c2ccc(F)nc2C1=O [Example 32, 3-Fluoro-10-(5-fluoro-pyridin-2-yl)-6-methyl-6,7-dihydro-4,6-diaza-dibenzo[a, c]cyclohepten-5-one]",1000 to 10000 nM
8,"Cc1cnc2c(c1)-c1cc(-c3ccc(F)nc3)ccc1CN(C)C2=O [Example 44, 10-(6-Fluoro-pyridin-3-yl)-2,6-dimethyl-6,7-dihydro-4,6-diaza-dibenzo[a, c]cyclohepten-5-one]",100 to 1000 nM
9,"COc1ccc2c(n1)C(=O)N(C)C1(CC1)c1ccc(Cl)cc1-2 [Example 52, 10-chloro-3-methoxy-6-methylspiro[benzo[c]pyrido[3,2-e]azepine-7,1′-cyclopropan]-5(6H)-one]",100 to 1000 nM
10,"COc1cnc2c(c1)-c1cc(-c3cccnc3C)ccc1CN(C)C2=O [Example 48, 2-Methoxy-6-methyl-10-(2-methyl-pyridin-3-yl)-6,7-dihydro-4,6-diaza-dibenzo[a, c]cyclohepten-5-one]",100 to 1000 nM
11,"Cc1cnc2c(c1)-c1cc(-c3cccnc3C)ccc1CN(C)C2=O [Example 43, 2,6-Dimethyl-10-(2-methyl-pyridin-3-yl)-6,7-dihydro-4,6-diaza-dibenzo[a, c]cyclohepten-5-one]",1000 to 10000 nM
12,"COCCn1cc2c(n1)C(=O)N(C)Cc1ccc(-c3cccnc3C)cc1-2 [Example 72, 2-(2-Methoxy-ethyl)-5-methyl-9-(2-methyl-pyridin-3-yl)-5,6-dihydro-2H-2,3,5-triaza-benzo[e]azulen-4-one]",1000 to 10000 nM
13,"Cc1ncccc1-c1ccc2c(c1)-c1cc[nH]c1C(=O)N(C)C2 [Example 59, 5-Methyl-9-(2-methyl-pyridin-3-yl)-5,6-dihydro-3H-3,5-diaza-benzo[e]azulen-4-one]",100 to 1000 nM
14,"CN1Cc2ccc(-c3ccc(F)nc3)cc2-c2ccc(F)nc2C1=O [Example 31, 3-Fluoro-10-(6-fluoro-pyridin-3-yl)-6-methyl-6,7-dihydro-4,6-diaza-dibenzo[a, c]cyclohepten-5-one]",1000 to 10000 nM
15,"COc1ccc2c(n1)C(=O)N(C)Cc1ccc(-c3ccc(F)cn3)cc1-2 [Example 34, 10-(5-Fluoro-pyridin-2-yl)-3-methoxy-6-methyl-6,7-dihydro-4,6-diaza-dibenzo[a, c]cyclohepten-5-one]",100 to 1000 nM
16,"COCn1cc2c(n1)C(=O)N(C)Cc1ccc(-c3ccc(F)nc3)cc1-2 [Example 66, 2-Methoxymethyl-5-methyl-9-(6-fluoro-pyridin-3-yl)-5,6-dihydro-2H-2,3,5-triaza-benzo[e]azulen-4-one]",100 to 1000 nM
17,"Cc1ncccc1-c1ccc2c(c1)-c1ccc(-c3ccnn3C)cc1C(=O)N(C)C21CC1 [Example 23, 3-(2-Methyl-2H-pyrazol-3-yl)-10-(2-methyl-pyridin-3-yl)-6-methyl-6,7-dihydro-spiro[dibenzo[c, e]azepine-7,1′-cyclopropan]-5-one]",100 to 1000 nM
18,"Cc1ncccc1-c1ccc2c(c1)-c1ccccc1C(=O)N(C)C21CC1 [Example 21, 10-(2-Methyl-pyridin-3-yl)-6-methyl-6,7-dihydro-spiro[dibenzo[c,e]azepine-7,1′-cyclopropan]-5-one, hydrochloride]",100 to 1000 nM
19,"Cc1ncccc1-c1ccc2c(c1)-c1ccc(Cl)cc1C(=O)N(C)C21CC1 [Example 22, 3-Chloro-10-(2-methyl-pyridin-3-yl)-6-methyl-6,7-dihydro-spiro[dibenzo[c, e]azepine-7,1′-cyclopropan]-5-one]",1000 to 10000 nM
20,"Cc1ccc2c(n1)C(=O)N(C)Cc1ccc(-c3ccc(F)cn3)cc1-2 [Example 40, 10-(5-Fluoro-pyridin-2-yl)-3,6-dimethyl-6,7-dihydro-4,6-diaza-dibenzo[a, c]cyclohepten-5-one]",100 to 1000 nM
21,"Cc1ncccc1-c1ccc2c(c1)-c1ccsc1C(=O)N(C)C2 [Example 55, 5-Methyl-9-(2-methyl-pyridin-3-yl)-5,6-dihydro-3-thia-5-aza-benzo[e]azulen-4-one]",100 to 1000 nM

# Other lines, results leading:
row,EC50,Compound
1,> 10000 nM,"CN1Cc2ncc(-c3ccc4nccn4c3)cc2-n2cccc2C1=O [Example 12, 9-Imidazo[1,2-a]pyridin-6-yl-5-methyl-5,6-dihydro-5,7,10b-triaza-benzo[e]azulen-4-one]"
2,1000 to 10000 nM,"Cc1ncccc1-c1cc2c(cn1)C1(CC1)N(C)C(=O)c1cccn1-2 [Example 3, 2′-(2-Methyl-pyridin-3-yl)-6′-methylspiro[cyclopropane-1,5′-pyrido[3,4-f]pyrrolo[1,2-a][1,4]diazepin]-7′(6 ^1H)-one]"
3,> 10000 nM,"Cc1ncccc1-c1cnc2c(c1)-n1cccc1C(=O)N(C)C2 [Example 6, 5-Methyl-9-(2-methyl-pyridin-3-yl)-5,6-dihydro-5,7,10b-triaza-benzo[e]azulen-4-one, dihydrochloride]"
4,100 to 1000 nM,"Cc1ncccc1-c1ccc2c(c1)-n1cccc1C(=O)N(C)C21CCC1 [Example 17, 9-(2-Methyl-pyridin-3-yl)-5-methyl-5,6-dihydro-spiro[benzo[f]pyrrolo[, 2-a][1,4]diazepine-6,1′-cyclobutan]-4-one]"
5,> 10000 nM,"CN1Cc2ncc(-c3cccc(C#N)c3)cc2-n2cccc2C1=O [Example 11, 3-(5-Methyl-4-oxo-5,6-dihydro-4H-5,7,1 b-triaza-benzo[e]azulen-9-yl)-benzonitrile]"
6,1000 to 10000 nM,"Cc1ncccc1-c1ccc2c(c1)-c1cc(F)cnc1C(=O)N(C)C2 [Example 46, 2-Fluoro-6-methyl-10-(2-methyl-pyridin-3-yl)-6,7-dihydro-4,6-diaza-dibenzo[a, c]cyclohepten-5-one]"
7,1000 to 10000 nM,"Cc1ncccc1-c1ccc2c(c1)-c1ccc(F)nc1C(=O)N(C)C2 [Example 30, 3-Fluoro-6-methyl-10-(2-methyl-pyridin-3-yl)-6,7-dihydro-4,6-diaza-dibenzo[a, c]cyclohepten-5-one]"
8,1000 to 10000 nM,"Cc1ncccc1-c1cnc2c(n1)-n1cccc1C(=O)N(C)C2 [Example 7, 5-Methyl-9-(2-methyl-pyridin-3-yl)-5,6-dihydro-5,7,10,10b-tetraaza-benzo[e]azulen-4-one, dihydrochloride]"
9,1000 to 10000 nM,"Cc1ncccc1-c1ccc2c(c1)-c1c[nH]nc1C(=O)N(C)C2 [Example 57, 5-Methyl-9-(2-methyl-pyridin-3-yl)-5,6-dihydro-2H-2,3,5-triaza-benzo[e]azulen-4-one]"
10,100 to 1000 nM,"Cc1ncccc1-c1ccc2c(c1)-c1cccnc1C(=O)N(C)C2 [Example 26, 6-Methyl-10-(2-methyl-pyridin-3-yl)-6,7-dihydro-4,6-diaza-dibenzo[a, c]cyclohepten-5-one]"
